Read-outs that look alike come from different tables or passages of the source.
Assays:
Type in all cases: cell-based
HL-60 cells = experiment: modified MTT method, proliferation of HL-60 cells; settings: Homo sapiens, read-out: IC50 on the growth of HL-60 cells
Description: (§1) Five test concentrations 2, 10, 50, 250 and 500 µM were set for each of five derivatives of artemisinin, artemether drug substance, artemisinin, dihydroartemisinin, artesunate were dissolved with dimethyl sulfoxide (DMSO), while the lyophilized powder of artemether was dissolved with normal saline (N.S.), followed by addition of a certain amount of RPMI 1640 complete culture solution to formulate a high-concentration solution, and each of the low-concentration solutions was formulated by proportionate dilution from the high-concentration solution.
(§2) The concentrations of DMSO contained in the solutions at the two relatively high concentrations 500 and 250 µM for the artemether drug substance, artemisinin, dihydroartemisinin, artesunate, used as solvent controls, were formulated with […] culture solution, at which time the test concentrations of DMSO were 1% and 0.5%. The concentrations of the excipients contained in the solutions at the two relatively high concentrations 500 and 250 µM for the preparation of lyophilized powder of artemether were used as solvent controls.
(§3) The positive control was an anti-cancer drug adriamycin (ADM), which was set at three test concentrations (final concentrations) of 0.1, 1 and 10 µg/ml. To ADM stock solution (1 mg/ml) a certain amount of PRMI 1640 complete culture solution was added, to formulate a high-concentration solution, and each of the low-concentration solutions were formulated by proportionate dilutions from the high-concentration solution.
(§4) HL-60: (human promyelocytic leukemia cell line); K562 (human chronic myelocytic leukemia cell line); HT-29 (human colon cancer cell line); PC-3 (human prostate cancer cell line); A549 (human non-small cell lung cancer cell line); MKN-28 (human gastric cancer cell line); Hep2 (human laryngeal cancer cell line), all of which were purchased from Cell Bank of Shanghai Institutes for Biological Sciences, the Chinese Academy of Sciences.
(§5) Influence of the five test samples on the proliferation of 7 human tumor cell lines was determined via a modified MTT method.
(§6) Cells in logarithmic growth phase were taken, adjusted to a certain concentration and then added into a 96 well culture plate. After culture of adherent cells for a period until adherence, the test samples were added; and for suspension cells, the test samples were added after inoculation. 5 test concentrations 2, 10, 50, 250 and 500 µM were set, with 3 parallel wells for each concentration, 10 µl/well; the solvent controls were 0.5% and 1% of isovolumetric DMSO, and the positive controls was ADM at 3 concentrations 0.1, 1 and 10 µg/ml. The samples were loaded followed by culture for a period of time in an incubator at 37°C, 5% CO2, followed by addition of MTT (5 mg/ml) at 20 µl/well, and continued to be cultured for a period of time and added with a three-combined solution [10% SDS - 5% isobutanol - 0.012 mol/L HCl (W/V/V)]. After dissolving in uniformity, it was continued to be placed in the incubator at 37°C, 5% CO2 for a period of time, and the OD value of each well was determined under a wavelength of 570 nm with a microplate reader, according to which the results were calculated.
(§7) The cellular proliferation inhibition rate was calculated in accordance with the following equation: Inhibition rate (%) = (OD valuecontrol well-OD valuesample well)/OD valuecontrol well × 100% [formula]
(§8) When the inhibition rate of DMSO on cells was more than 15%, calculation was carried out using the following equation: Inhibition rate (%) = (OD valuesolvent group-OD valueadministered well)/OD valuesolvent group × 100% [formula]
(§9) The inhibition rate was calculated by using Microsoft Excel 2003, and median inhibitory concentration IC50 was calculated with a LOGIT method, which was used as an indicator for judging the inhibitory capability.

K562 cells = experiment: modified MTT method, proliferation of K562 cells; settings: Homo sapiens, read-out: IC50 on the growth of K562 cells
Description: as §1, §2, §3, §4, §5, §6, §7, §8, §9

PC-3 cells = experiment: modified MTT method, proliferation of PC-3 cells; settings: Homo sapiens, read-out: IC50 on the growth of PC-3 cells
Description: as §1, §2, §3, §4, §5, §6, §7, §8, §9

A549 cells = experiment: modified MTT method, proliferation of A549 cells; settings: Homo sapiens, read-out: IC50 on the growth of A549 cells
Description: as §1, §2, §3, §4, §5, §6, §7, §8, §9

MKN-28 cells = experiment: modified MTT method, proliferation of MKN-28 cells; settings: Homo sapiens, MKN-28, 72 h, secondary screening
Description: as §1, §2, §3, §4, §5, §6, §7, §8, §9
(§10) According to the results of preliminary screening, further experiments were adjusted such that more sensitive cell lines were screened out. […]

HT-29 cells = experiment: modified MTT method, proliferation of HT-29 cells; settings: Homo sapiens
Description: as §1, §2, §3, §4, §5, §6, §7, §8, §9, §10

Hep2 cells = experiment: modified MTT method, proliferation of Hep2 cells; settings: Homo sapiens, HEp-2, 72 h, secondary screening
Description: as §1, §2, §3, §4, §5, §6, §7, §8, §9, §10

SMILES: C[C@H]1[C@@H](O)O[C@@H]2O[C@@]3(C)CC[C@H]4[C@H](C)CC[C@@H]1[C@@]24OO3 [dihydroartemisinin]
- IC50 (HL-60 cells; HL-60, 24 h, Batch 1, 24 h): > 1000 µM
- IC50 (HL-60 cells; HL-60, 24 h, Batch 2, 24 h): 74.4 µM
- IC50 (HL-60 cells; HL-60, 48 h, Batch 1, 48 h): > 1000 µM
- IC50 (HL-60 cells; HL-60, 48 h, Batch 2, 48 h): 16.3 µM
- IC50 (HL-60 cells; HL-60, 72 h, Batch 1, 72 h): > 1000 µM
- IC50 (HL-60 cells; HL-60, 72 h, Batch 2, 72 h): 116 µM
- IC50 (K562 cells; K562, 24 h, Batch 1, 24 h): > 1000 µM
- IC50 (K562 cells; K562, 24 h, Batch 2, 24 h): 144 µM
- IC50 (K562 cells; K562, 24 h, Batch 3, 24 h): 146 µM
- IC50 (K562 cells; K562, 48 h, Batch 1, 48 h): 997 µM
- IC50 (K562 cells; K562, 48 h, Batch 2, 48 h): 28 µM
- IC50 (K562 cells; K562, 48 h, Batch 3, 48 h): 80.7 µM
- IC50 (K562 cells; K562, 72 h, Batch 1, 72 h): 492 µM
- IC50 (K562 cells; K562, 72 h, Batch 2, 72 h): 44.8 µM
- IC50 (K562 cells; K562, 72 h, Batch 3, 72 h): 60.5 µM
- IC50 (PC-3 cells; PC-3, 24 h, Batch 1, 24 h): 660 µM
- IC50 (PC-3 cells; PC-3, 24 h, Batch 2, 24 h): > 1000 µM
- IC50 (PC-3 cells; PC-3, 48 h, Batch 1, 48 h): > 1000 µM
- IC50 (PC-3 cells; PC-3, 48 h, Batch 2, 48 h): > 1000 µM
- IC50 (PC-3 cells; PC-3, 72 h, Batch 1, 72 h): 230 µM
- IC50 (PC-3 cells; PC-3, 72 h, Batch 2, 72 h): > 1000 µM
- IC50 (A549 cells; A549, 24 h, Batch 1, 24 h): > 1000 µM
- IC50 (A549 cells; A549, 24 h, Batch 2, 24 h): 935 µM
- IC50 (A549 cells; A549, 48 h, Batch 1, 48 h): > 1000 µM
- IC50 (A549 cells; A549, 48 h, Batch 2, 48 h): 221 µM
- IC50 (A549 cells; A549, 72 h, Batch 1, 72 h): > 1000 µM
- IC50 (A549 cells; A549, 72 h, Batch 2, 72 h): 192 µM
- IC50 (MKN-28 cells; Average, read-out: IC50 on the growth of MKN-28 cells (72 h)): 16.2 µM
- IC50 (MKN-28 cells; Batch 1, read-out: IC50 on the growth of MKN-28 cells (72 h)): 15.1 µM
- IC50 (MKN-28 cells; Batch 2, read-out: IC50 on the growth of MKN-28 cells (72 h)): 17.1 µM
- IC50 (MKN-28 cells; Batch 3, read-out: IC50 on the growth of MKN-28 cells (72 h)): 16.5 µM
- IC50 (HT-29 cells; HT-29, 24 h, preliminary screening, Batch 1, 24 h, read-out: IC50 on the growth of HT-29 cells): 288 µM
- IC50 (HT-29 cells; HT-29, 24 h, preliminary screening, Batch 2, 24 h, read-out: IC50 on the growth of HT-29 cells): 280 µM
- IC50 (HT-29 cells; HT-29, 48 h, preliminary screening, Batch 1, 48 h, read-out: IC50 on the growth of HT-29 cells): 337 µM
- IC50 (HT-29 cells; HT-29, 48 h, preliminary screening, Batch 2, 48 h, read-out: IC50 on the growth of HT-29 cells): 433 µM
- IC50 (HT-29 cells; HT-29, 72 h, preliminary screening, Batch 1, 72 h, read-out: IC50 on the growth of HT-29 cells): 160 µM
- IC50 (HT-29 cells; HT-29, 72 h, preliminary screening, Batch 2, 72 h, read-out: IC50 on the growth of HT-29 cells): 258 µM
- IC50 (HT-29 cells; HT-29, 72 h, secondary screening, 72 h, Batch 1, read-out: IC50 on the growth of HT-29 cells (72 h)): 236 µM
- IC50 (HT-29 cells; HT-29, 72 h, secondary screening, 72 h, Batch 2, read-out: IC50 on the growth of HT-29 cells (72 h)): 173 µM
- IC50 (HT-29 cells; HT-29, 72 h, secondary screening, 72 h, Batch 3, read-out: IC50 on the growth of HT-29 cells (72 h)): 148 µM
- IC50 (HT-29 cells; HT-29, 72 h, secondary screening, 72 h, average, read-out: IC50 on the growth of HT-29 cells (72 h)): 143 µM
- IC50 (Hep2 cells; Batch 1, read-out: IC50 on the growth of Hep2 cells (72 h)): 114 µM
- IC50 (Hep2 cells; Batch 2, read-out: IC50 on the growth of Hep2 cells (72 h)): 88.2 µM
- IC50 (Hep2 cells; Batch 3, read-out: IC50 on the growth of Hep2 cells (72 h)): 126 µM
- IC50 (Hep2 cells; average, read-out: IC50 on the growth of Hep2 cells (72 h)): 92 µM
